Key:
Human δ-opioid (DOP) = molecular target: T1, Human δ-opioid (DOP) (Homo sapiens, UniProt P41143); assay: Radioligand binding, human δ-opioid (DOP) membranes, FlashPlate, [3H]-Bremazocine; conditions: compound at 10 μM, [3H]-Bremazocine
T1 construct: purchased Perkin Elmer Biosignal
Outline: (§1)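 Cloned human receptor membranes were coated onto FlashPlate wells and incubated with radioligand and compound (added from a 0.5 mM DMSO daughter plate) for 1 hour at room temperature in the dark. Scintillation counting gave percent inhibition, with DMSO defining total and reference ligand defining non-specific binding.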

Human Melanocortin (MC4) = molecular target: T2, Human Melanocortin (MC4) (Homo sapiens, UniProt P32245); assay: Radioligand binding, human melanocortin MC4 membranes, FlashPlate, [125I]-NDP-αMSH; conditions: compound at 10 μM, [125I]-NDP-αMSH
T2 construct: purchased Perkin Elmer Biosignal
Outline: as §1

Human Melanocortin (MC3) = molecular target: T3, Human Melanocortin (MC3) (Homo sapiens, UniProt P41968); assay: Radioligand binding, human melanocortin MC3 membranes, FlashPlate, [125I]-NDP-αMSH; conditions: compound at 10 μM, [125I]-NDP-αMSH
T3 construct: purchased Perkin Elmer Biosignal
Outline: as §1

[1] = molecular target: T4, Human melanin-concentrating hormone (MCH1) (Homo sapiens, UniProt Q99705); assay: Radioligand binding, human melanin-concentrating hormone MCH1 membranes, FlashPlate, [125I]-S36057; conditions: compound at 10 μM
T4 construct: purchased Perkin Elmer Biosignal
Outline: as §1

Mouse urotensin (mUR2) = molecular target: T5, Mouse urotensin (mUR2) (Mus musculus, UniProt Q8VIH9); assay: Radioligand binding, mouse urotensin mUR2 membranes, FlashPlate, [125I]-Urotensin II; conditions: compound at 10 μM, [125I]-Urotensin II
T5 construct: purchased Perkin Elmer Biosignal
T5 sequence (Q8VIH9 1-385): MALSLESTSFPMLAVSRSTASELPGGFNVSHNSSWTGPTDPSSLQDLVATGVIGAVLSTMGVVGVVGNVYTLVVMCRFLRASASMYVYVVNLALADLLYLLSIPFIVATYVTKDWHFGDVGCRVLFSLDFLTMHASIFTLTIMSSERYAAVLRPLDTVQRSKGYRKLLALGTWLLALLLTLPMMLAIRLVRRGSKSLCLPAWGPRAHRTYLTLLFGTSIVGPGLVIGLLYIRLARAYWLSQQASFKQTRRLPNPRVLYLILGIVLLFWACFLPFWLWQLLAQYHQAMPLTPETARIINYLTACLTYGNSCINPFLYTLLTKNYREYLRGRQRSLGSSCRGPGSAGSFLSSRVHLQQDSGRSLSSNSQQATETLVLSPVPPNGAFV
Outline: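 Cloned mouse urotensin (mUR2) receptor membranes from Perkin Elmer Biosignal were immobilized in FlashPlate microplates using a proprietary coating. Each well got 19.5 μl buffer, then 0.5 μl of DMSO, reference ligand, or compound. Adding 5 μl of [125I]-Urotensin II, diluted to 5× final concentration in binding buffer, started binding. Plates were sealed with TopSeal-A and incubated 1 hour at room temperature in the dark. Wells were counted for 30 seconds each on a TopCount after a 60-second delay, and percentage inhibition was calculated.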

Human opioid (ORL1) = molecular target: T6, Human opioid (ORL1) (Homo sapiens, UniProt P41146); assay: Radioligand binding, human opioid ORL1 membranes, FlashPlate, [125I]-Nociceptin; conditions: compound at 10 μM, [125I]-Nociceptin
T6 construct: purchased Perkin Elmer Biosignal
Outline: as §1

Human neurokinin (NK1) = molecular target: T7, Human neurokinin (NK1) (Homo sapiens, UniProt P25103); assay: Radioligand binding, human neurokinin NK1 membranes, filtration, [125I]-Substance P; conditions: compound at 10 μM, [125I]-Substance P
T7 construct: purchased Perkin Elmer Biosignal
Outline: (§2)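 Membranes from cloned human receptors were incubated with compound and radioligand for 1 hour at room temperature. Bound ligand was collected on 0.3% PEI-soaked filters, washed with cold 50 mM Tris-HCl pH 7.4, and counted by scintillation. Percent inhibition was computed against DMSO totals and reference-ligand nonspecific wells.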

Human μ-opioid (MOP) = molecular target: T8, Human μ-opioid (MOP) (Homo sapiens, UniProt P35372); assay: Radioligand binding, human μ-opioid (MOP) membranes, FlashPlate, [3H]-Naloxone; conditions: compound at 10 μM, [3H]-Naloxone
T8 construct: purchased Perkin Elmer Biosignal
Outline: as §1

Human melanocortin (MC5) = molecular target: T9, Human melanocortin (MC5) (Homo sapiens, UniProt P33032); assay: Radioligand binding, human melanocortin MC5 membranes, FlashPlate, [125I]-NDP-αMSH; conditions: compound at 10 μM, [125I]-NDP-αMSH
T9 construct: purchased Perkin Elmer Biosignal
Outline: as §1

[2] = molecular target: T10, Human neuropeptide Y (NPY-Y1) (Homo sapiens, UniProt P25929); assay: Radioligand binding, human neuropeptide Y NPY-Y1 membranes, FlashPlate, [125I]-PYY; conditions: compound at 10 μM, [125I]-PYY
T10 construct: purchased Perkin Elmer Biosignal
T10 sequence (P25929 1-384): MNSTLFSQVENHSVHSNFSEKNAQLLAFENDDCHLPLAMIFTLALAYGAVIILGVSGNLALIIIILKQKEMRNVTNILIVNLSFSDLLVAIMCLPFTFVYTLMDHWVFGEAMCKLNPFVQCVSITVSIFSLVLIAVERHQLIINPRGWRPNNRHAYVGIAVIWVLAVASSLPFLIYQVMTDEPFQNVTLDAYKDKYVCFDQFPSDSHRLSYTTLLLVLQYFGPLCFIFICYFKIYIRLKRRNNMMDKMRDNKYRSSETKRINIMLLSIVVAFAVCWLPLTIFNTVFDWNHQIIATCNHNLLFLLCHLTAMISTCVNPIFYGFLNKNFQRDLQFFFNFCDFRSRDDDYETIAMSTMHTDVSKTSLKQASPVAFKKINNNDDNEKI
Outline: as §1

Human κ-Opioid (KOP) = molecular target: T11, Human κ-Opioid (KOP) (Homo sapiens, UniProt P41145); assay: Radioligand binding, human κ-opioid (KOP) membranes, filtration, [3H]-Diprenorphine; conditions: compound at 10 μM, [3H]-Diprenorphine
T11 construct: purchased Perkin Elmer Biosignal
Outline: as §2

[3] = [125I]-S36057, human MCH1 membranes

T9 sequence (P33032 whole entry): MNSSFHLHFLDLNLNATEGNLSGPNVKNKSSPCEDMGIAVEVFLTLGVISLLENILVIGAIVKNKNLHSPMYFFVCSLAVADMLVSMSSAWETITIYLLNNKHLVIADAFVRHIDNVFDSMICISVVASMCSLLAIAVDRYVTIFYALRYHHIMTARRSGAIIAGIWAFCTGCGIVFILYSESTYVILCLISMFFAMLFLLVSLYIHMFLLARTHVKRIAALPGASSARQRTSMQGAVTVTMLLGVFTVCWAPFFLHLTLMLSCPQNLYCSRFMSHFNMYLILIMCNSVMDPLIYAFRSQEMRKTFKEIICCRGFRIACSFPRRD
T4 sequence (Q99705 whole entry): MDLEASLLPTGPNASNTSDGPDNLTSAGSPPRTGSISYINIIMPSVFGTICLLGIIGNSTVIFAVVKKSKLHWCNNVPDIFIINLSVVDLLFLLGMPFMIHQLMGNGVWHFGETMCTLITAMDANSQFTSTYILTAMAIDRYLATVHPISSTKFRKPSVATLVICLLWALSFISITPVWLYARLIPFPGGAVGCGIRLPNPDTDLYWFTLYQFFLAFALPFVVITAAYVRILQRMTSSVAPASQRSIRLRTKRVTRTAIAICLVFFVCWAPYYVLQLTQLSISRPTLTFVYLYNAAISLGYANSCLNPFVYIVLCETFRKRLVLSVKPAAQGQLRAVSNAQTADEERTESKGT
T8 sequence (P35372 whole entry): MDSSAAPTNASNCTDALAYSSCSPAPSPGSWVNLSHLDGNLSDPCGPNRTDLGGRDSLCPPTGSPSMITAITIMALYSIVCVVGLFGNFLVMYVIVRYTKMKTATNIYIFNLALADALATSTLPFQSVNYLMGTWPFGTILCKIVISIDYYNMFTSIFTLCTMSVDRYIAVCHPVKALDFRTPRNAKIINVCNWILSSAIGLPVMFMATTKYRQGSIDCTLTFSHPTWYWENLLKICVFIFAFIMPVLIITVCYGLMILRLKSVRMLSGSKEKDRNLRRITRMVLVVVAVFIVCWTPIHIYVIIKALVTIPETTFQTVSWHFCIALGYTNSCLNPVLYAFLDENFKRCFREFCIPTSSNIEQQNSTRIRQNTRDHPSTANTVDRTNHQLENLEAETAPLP
T1 sequence (P41143 whole entry): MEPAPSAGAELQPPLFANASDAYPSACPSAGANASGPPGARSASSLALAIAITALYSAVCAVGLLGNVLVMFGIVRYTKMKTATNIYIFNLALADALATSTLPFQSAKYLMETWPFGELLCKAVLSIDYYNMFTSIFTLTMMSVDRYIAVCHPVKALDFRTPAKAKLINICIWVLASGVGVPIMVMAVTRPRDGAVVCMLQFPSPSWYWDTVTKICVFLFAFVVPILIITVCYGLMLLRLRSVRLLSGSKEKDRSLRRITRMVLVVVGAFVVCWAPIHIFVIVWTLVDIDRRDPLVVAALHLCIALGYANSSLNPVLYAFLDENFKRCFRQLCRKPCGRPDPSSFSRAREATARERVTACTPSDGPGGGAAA
T11 sequence (P41145 whole entry): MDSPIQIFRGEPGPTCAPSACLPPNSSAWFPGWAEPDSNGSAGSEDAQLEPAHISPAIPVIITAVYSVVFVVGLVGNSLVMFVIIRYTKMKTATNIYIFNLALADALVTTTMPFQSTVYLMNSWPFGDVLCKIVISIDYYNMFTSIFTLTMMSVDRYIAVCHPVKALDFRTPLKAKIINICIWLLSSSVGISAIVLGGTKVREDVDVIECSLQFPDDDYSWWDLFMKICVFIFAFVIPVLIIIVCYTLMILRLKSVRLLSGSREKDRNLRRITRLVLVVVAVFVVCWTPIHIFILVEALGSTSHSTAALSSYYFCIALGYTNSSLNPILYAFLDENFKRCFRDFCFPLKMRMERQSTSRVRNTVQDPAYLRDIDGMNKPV
T3 sequence (P41968 whole entry): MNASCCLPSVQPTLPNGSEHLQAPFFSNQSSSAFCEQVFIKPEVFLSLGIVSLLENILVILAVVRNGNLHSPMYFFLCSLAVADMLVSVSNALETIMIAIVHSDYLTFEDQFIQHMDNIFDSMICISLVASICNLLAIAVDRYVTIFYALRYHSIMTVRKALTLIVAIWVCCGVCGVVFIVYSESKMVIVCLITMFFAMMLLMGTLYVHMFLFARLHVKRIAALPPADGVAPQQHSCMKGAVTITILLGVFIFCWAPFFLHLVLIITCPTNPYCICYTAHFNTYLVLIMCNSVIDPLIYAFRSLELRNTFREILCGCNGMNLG
T2 sequence (P32245 whole entry): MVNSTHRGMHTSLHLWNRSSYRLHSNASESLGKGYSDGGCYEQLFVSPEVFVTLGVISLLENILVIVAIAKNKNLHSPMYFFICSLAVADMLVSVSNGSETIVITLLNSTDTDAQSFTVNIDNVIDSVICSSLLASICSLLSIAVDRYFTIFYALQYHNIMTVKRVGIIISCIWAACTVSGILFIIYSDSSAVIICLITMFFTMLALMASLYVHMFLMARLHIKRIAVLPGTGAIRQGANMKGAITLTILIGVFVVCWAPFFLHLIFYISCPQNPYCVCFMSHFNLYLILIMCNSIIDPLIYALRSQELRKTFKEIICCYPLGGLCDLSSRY
T7 sequence (P25103 whole entry): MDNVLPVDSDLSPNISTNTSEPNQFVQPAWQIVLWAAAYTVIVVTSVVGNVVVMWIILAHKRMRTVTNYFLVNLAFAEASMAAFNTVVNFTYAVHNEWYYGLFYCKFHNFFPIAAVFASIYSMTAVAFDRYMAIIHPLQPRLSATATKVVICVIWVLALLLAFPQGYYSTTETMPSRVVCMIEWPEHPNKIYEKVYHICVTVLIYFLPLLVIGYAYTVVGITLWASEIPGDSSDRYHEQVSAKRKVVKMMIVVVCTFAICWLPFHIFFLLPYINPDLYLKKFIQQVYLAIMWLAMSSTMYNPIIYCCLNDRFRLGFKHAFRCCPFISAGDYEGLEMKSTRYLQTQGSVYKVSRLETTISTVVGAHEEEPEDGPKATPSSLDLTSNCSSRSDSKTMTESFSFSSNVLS
T6 sequence (P41146 whole entry): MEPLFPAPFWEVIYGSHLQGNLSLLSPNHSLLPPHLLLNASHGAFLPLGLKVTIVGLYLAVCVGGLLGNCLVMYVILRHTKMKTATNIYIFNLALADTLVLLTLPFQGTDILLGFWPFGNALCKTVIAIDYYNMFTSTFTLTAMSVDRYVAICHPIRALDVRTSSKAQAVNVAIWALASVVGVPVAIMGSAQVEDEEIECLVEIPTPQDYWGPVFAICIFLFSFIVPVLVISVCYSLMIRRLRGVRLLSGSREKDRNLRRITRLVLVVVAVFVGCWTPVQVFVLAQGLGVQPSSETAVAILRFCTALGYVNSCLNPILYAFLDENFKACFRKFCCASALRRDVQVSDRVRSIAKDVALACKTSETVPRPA

| Structure (SMILES) | A1: inhibition of radioligand binding (Human δ-opioid (DOP); human DOP membranes) | A4: inhibition of radioligand binding (Human Melanocortin (MC4); human MC4 membranes) | A3: inhibition of radioligand binding (Human Melanocortin (MC3); human MC3 membranes) | A6: inhibition of radioligand binding [1, 3] | A11: inhibition of radioligand binding (Mouse urotensin (mUR2); mouse mUR2 membranes) | A10: inhibition of radioligand binding (Human opioid (ORL1); human ORL1 membranes) | A8: inhibition of radioligand binding (Human neurokinin (NK1); human NK1 membranes) | A7: inhibition of radioligand binding (Human μ-opioid (MOP); human MOP membranes) | A5: inhibition of radioligand binding (Human melanocortin (MC5); human MC5 membranes, 10 µM) | A9: inhibition of radioligand binding ([2]; human NPY-Y1 membranes) | A2: inhibition of radioligand binding (Human κ-Opioid (KOP); human KOP membranes) | other results |
| --- | --- | --- | --- | --- | --- | --- | --- | --- | --- | --- | --- | --- |
| COCC1OC(OCCc2ccccc2)C(NC(=O)CCCNC(=N)N)C(OCc2ccc3ccccc3c2)C1O (stereo not shown) [compound 229] |  |  |  |  |  |  |  |  |  |  |  | A1: inhibition of radioligand binding (Human δ-opioid (DOP); FlashPlate): − (“−” indicates less than 50% inhibition at 10 μM); A4: inhibition of radioligand binding (Human Melanocortin (MC4); FlashPlate): + (“+” indicates greater than 50% inhibition at 10 μM); A3: inhibition of radioligand binding (Human Melanocortin (MC3); FlashPlate): − (“−” indicates less than 50% inhibition at 10 μM); A6: inhibition of radioligand binding ([1]; [125I]-S36057, FlashPlate): + (“+” indicates greater than 50% inhibition at 10 μM); A11: inhibition of radioligand binding (Mouse urotensin (mUR2); FlashPlate): − (“−” indicates less than 50% inhibition at 10 μM); A10: inhibition of radioligand binding (Human opioid (ORL1); FlashPlate): − (“−” indicates less than 50% inhibition at 10 μM); A8: inhibition of radioligand binding (Human neurokinin (NK1); filtration): + (“+” indicates greater than 50% inhibition at 10 μM); A7: inhibition of radioligand binding (Human μ-opioid (MOP); FlashPlate): − (“−” indicates less than 50% inhibition at 10 μM); A5: inhibition of radioligand binding (Human melanocortin (MC5); FlashPlate): + (“+” indicates greater than 50% inhibition at 10 μM); A9: inhibition of radioligand binding ([2]; FlashPlate): − (“−” indicates less than 50% inhibition at 10 μM); A2: inhibition of radioligand binding (Human κ-Opioid (KOP); filtration): − (“−” indicates less than 50% inhibition at 10 μM) |
| NCCC(=O)NC1C(OCc2ccc3ccccc3c2)OC(COCc2ccccc2)C(O)C1OCc1ccccc1 (stereo not shown) [compound 388] | − (“−” indicates less than 50% inhibition at 10 μM) | + (“+” indicates greater than 50% inhibition at 10 μM) | − (“−” indicates less than 50% inhibition at 10 μM) | − (“−” indicates less than 50% inhibition at 10 μM) | − (“−” indicates less than 50% inhibition at 10 μM) | − (“−” indicates less than 50% inhibition at 10 μM) | + (“+” indicates greater than 50% inhibition at 10 μM) | − (“−” indicates less than 50% inhibition at 10 μM) | + (“+” indicates greater than 50% inhibition at 10 μM) | − (“−” indicates less than 50% inhibition at 10 μM) | − (“−” indicates less than 50% inhibition at 10 μM) |  |
| N=C(N)NCC(=O)N[C@H]1C(OCc2ccc(Cl)cc2)O[C@H](COCc2ccc(Cl)cc2)[C@@H](O)[C@@H]1OCc1ccc(-c2ccccc2)cc1 (stereo partly shown) [compound 521] |  |  |  |  |  |  |  |  |  |  |  | A1: inhibition of radioligand binding, human δ-opioid (DOP) (Human δ-opioid (DOP)): − (“−” indicates less than 50% inhibition at 10 μM); A4: inhibition of radioligand binding, human melanocortin (MC4) (Human Melanocortin (MC4)): + (“+” indicates greater than 50% inhibition at 10 μM); A3: inhibition of radioligand binding, human melanocortin (MC3) (Human Melanocortin (MC3)): + (“+” indicates greater than 50% inhibition at 10 μM); A6: inhibition of radioligand binding, human melanin-concentrating hormone (MCH1) ([1]; [125I]-S36057): + (“+” indicates greater than 50% inhibition at 10 μM); A11: inhibition of radioligand binding, mouse urotensin (mUR2) (Mouse urotensin (mUR2)): − (“−” indicates less than 50% inhibition at 10 μM); A10: inhibition of radioligand binding, human opioid (ORL1) (Human opioid (ORL1); 10 µM): + (“+” indicates greater than 50% inhibition at 10 μM); A8: inhibition of radioligand binding, human neurokinin (NK1) (Human neurokinin (NK1)): + (“+” indicates greater than 50% inhibition at 10 μM); A7: inhibition of radioligand binding, human μ-opioid (MOP) (Human μ-opioid (MOP)): − (“−” indicates less than 50% inhibition at 10 μM); A5: inhibition of radioligand binding, human melanocortin (MC5) (Human melanocortin (MC5)): + (“+” indicates greater than 50% inhibition at 10 μM); A9: inhibition of radioligand binding, human neuropeptide Y (NPY-Y1) [2]: − (“−” indicates less than 50% inhibition at 10 μM); A2: inhibition of radioligand binding, human κ-opioid (KOP) (Human κ-Opioid (KOP)): − (“−” indicates less than 50% inhibition at 10 μM) |
| NCCC(=O)N[C@H]1C(OCc2ccc3ccccc3c2)O[C@H](COCc2ccccc2)[C@@H](O)[C@@H]1OCc1ccc(Cl)cc1 (stereo partly shown) [compound 438] | − (“−” indicates less than 50% inhibition at 10 μM) |  | − (“−” indicates less than 50% inhibition at 10 μM) |  | − (“−” indicates less than 50% inhibition at 10 μM) | − (“−” indicates less than 50% inhibition at 10 μM) | + (“+” indicates greater than 50% inhibition at 10 μM) | − (“−” indicates less than 50% inhibition at 10 μM) | − (“−” indicates less than 50% inhibition at 10 μM) | − (“−” indicates less than 50% inhibition at 10 μM) | − (“−” indicates less than 50% inhibition at 10 μM) | A4: inhibition of radioligand binding (Human Melanocortin (MC4); human MC4 membranes, 10 µM): − (“−” indicates less than 50% inhibition at 10 μM); A6: inhibition of radioligand binding ([1]; [125I]-S36057, human MCH1 membranes, 10 µM): + (“+” indicates greater than 50% inhibition at 10 μM) |
| N=C(N)NCC(=O)NC1C(OCc2ccc(-c3ccccc3)cc2)OC(COCc2ccccc2)C(O)C1OCc1ccc(-c2ccccc2)cc1 (stereo not shown) [compound 406] | − (“−” indicates less than 50% inhibition at 10 μM) | + (“+” indicates greater than 50% inhibition at 10 μM) | + (“+” indicates greater than 50% inhibition at 10 μM) | − (“−” indicates less than 50% inhibition at 10 μM) | − (“−” indicates less than 50% inhibition at 10 μM) | + (“+” indicates greater than 50% inhibition at 10 μM) | + (“+” indicates greater than 50% inhibition at 10 μM) | − (“−” indicates less than 50% inhibition at 10 μM) |  | − (“−” indicates less than 50% inhibition at 10 μM) | − (“−” indicates less than 50% inhibition at 10 μM) | A5: inhibition of radioligand binding (Human melanocortin (MC5); human MC5 membranes): + (“+” indicates greater than 50% inhibition at 10 μM) |

Reference: patent US20080009418A1, “Selective Inhibitors” (Alchemia LTD., priority 2004, published 2008)
